Measurements published in paper PMC5341070, “Small molecule inhibitors block Gas6-inducible TAM activation and tumorigenicity” (Scientific Reports, 2017).
Values belong to the compound of their own block, whether it stands above or below them.

Tests used:
Assay in all cases: biochemical
Design in all cases: KINOMEscan (DiscoverX) competition binding screen of 97 human kinases, percent of control at 10 uM
[1] = biological target: PAK4 (Homo sapiens, UniProt O96013)
Description: (§1) The KINOMEscan profiling of the inhibitors were performed as per directions by the manufacturer (DiscoverX) against a panel of human protein kinases.

[2] = biological target: T1, ERK1 (Homo sapiens, UniProt P27361)
T1 construct: gene MAPK3
Description: as §1

[3] = biological target: AURKA (Homo sapiens, UniProt O14965)
Description: as §1

[4] = biological target: PIM2 (Homo sapiens, UniProt Q9P1W9)
Description: as §1

[5] = biological target: T2, JNK3 (Homo sapiens, UniProt P53779)
T2 construct: gene MAPK10
Description: as §1

[6] = biological target: ACVR1B (Homo sapiens, UniProt P36896)
Description: as §1

[7] = biological target: CDK7 (Homo sapiens, UniProt P50613)
Description: as §1

[8] = biological target: EGFR(L858R) (Homo sapiens, UniProt P00533, L858R)
Description: as §1

[9] = biological target: AKT2 (Homo sapiens, UniProt P31751)
Description: as §1

[10] = biological target: ERBB2 (Homo sapiens, UniProt P04626)
Description: as §1

[11] = biological target: ZAP70 (Homo sapiens, UniProt P43403)
Description: as §1

[12] = biological target: T3, ABL1(T315I)-phosphorylated (Homo sapiens, UniProt P00519, T315I)
T3 construct: phosphorylated
Description: as §1

[13] = biological target: MKNK1 (Homo sapiens, UniProt Q9BUB5)
Description: as §1

[14] = biological target: MET (Homo sapiens, UniProt P08581)
Description: as §1

[15] = biological target: T4, RSK2(Kin.Dom.1-N-terminal) (Homo sapiens, UniProt P51812)
T4 construct: gene RPS6KA3; Kin.Dom.1-N-terminal
Description: as §1

[16] = biological target: T5, YANK3 (Homo sapiens, UniProt Q86UX6)
T5 construct: gene STK32C
Description: as §1

[17] = biological target: ULK2 (Homo sapiens, UniProt Q8IYT8)
Description: as §1

[18] = biological target: T6, MEK1 (Homo sapiens, UniProt Q02750)
T6 construct: gene MAP2K1
Description: as §1

[19] = biological target: MARK3 (Homo sapiens, UniProt P27448)
Description: as §1

[20] = biological target: PRKCE (Homo sapiens, UniProt Q02156)
Description: as §1

[21] = biological target: AKT1 (Homo sapiens, UniProt P31749)
Description: as §1

[22] = biological target: RIOK2 (Homo sapiens, UniProt Q9BVS4)
Description: as §1

[23] = biological target: INSR (Homo sapiens, UniProt P06213)
Description: as §1

[24] = read-out: R428 %Ctrl @ 10000nM, binding competition
[25] = binding competition, % of control, read-out: RU-301 %Ctrl @ 10000nM

Sequence of MARK3 (P27448 whole entry): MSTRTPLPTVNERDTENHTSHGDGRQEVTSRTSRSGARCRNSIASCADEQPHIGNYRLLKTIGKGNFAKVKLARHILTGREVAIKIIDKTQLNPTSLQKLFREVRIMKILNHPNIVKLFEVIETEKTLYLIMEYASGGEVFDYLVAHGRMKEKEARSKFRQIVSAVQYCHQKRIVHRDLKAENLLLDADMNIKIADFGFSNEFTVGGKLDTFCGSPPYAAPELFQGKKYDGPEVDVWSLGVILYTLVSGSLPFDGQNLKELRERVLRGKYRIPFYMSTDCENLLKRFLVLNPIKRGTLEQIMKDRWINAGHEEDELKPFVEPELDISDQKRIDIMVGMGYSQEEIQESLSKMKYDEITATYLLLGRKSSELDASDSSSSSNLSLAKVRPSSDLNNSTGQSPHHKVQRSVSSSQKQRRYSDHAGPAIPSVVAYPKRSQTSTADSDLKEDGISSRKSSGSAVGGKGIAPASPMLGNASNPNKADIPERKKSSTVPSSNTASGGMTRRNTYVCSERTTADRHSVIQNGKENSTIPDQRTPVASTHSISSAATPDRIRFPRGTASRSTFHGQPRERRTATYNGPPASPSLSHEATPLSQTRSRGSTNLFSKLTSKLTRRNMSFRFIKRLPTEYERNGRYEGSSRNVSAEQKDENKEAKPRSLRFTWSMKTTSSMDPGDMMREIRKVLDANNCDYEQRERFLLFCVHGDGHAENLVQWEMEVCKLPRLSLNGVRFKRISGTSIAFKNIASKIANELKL
Sequence of AKT2 (P31751 whole entry): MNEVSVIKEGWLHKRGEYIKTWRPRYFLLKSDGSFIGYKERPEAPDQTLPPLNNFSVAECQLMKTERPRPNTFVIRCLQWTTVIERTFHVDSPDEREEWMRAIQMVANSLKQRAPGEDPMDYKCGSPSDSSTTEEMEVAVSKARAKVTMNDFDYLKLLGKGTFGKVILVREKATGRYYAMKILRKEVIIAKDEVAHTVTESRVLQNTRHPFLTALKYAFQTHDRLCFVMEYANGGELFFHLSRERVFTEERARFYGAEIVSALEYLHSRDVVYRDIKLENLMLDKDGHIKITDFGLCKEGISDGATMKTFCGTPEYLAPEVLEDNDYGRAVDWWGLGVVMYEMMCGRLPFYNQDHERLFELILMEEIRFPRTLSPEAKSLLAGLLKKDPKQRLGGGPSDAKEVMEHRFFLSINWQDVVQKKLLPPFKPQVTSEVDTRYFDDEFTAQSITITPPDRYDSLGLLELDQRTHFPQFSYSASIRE
Sequence of ZAP70 (P43403 whole entry): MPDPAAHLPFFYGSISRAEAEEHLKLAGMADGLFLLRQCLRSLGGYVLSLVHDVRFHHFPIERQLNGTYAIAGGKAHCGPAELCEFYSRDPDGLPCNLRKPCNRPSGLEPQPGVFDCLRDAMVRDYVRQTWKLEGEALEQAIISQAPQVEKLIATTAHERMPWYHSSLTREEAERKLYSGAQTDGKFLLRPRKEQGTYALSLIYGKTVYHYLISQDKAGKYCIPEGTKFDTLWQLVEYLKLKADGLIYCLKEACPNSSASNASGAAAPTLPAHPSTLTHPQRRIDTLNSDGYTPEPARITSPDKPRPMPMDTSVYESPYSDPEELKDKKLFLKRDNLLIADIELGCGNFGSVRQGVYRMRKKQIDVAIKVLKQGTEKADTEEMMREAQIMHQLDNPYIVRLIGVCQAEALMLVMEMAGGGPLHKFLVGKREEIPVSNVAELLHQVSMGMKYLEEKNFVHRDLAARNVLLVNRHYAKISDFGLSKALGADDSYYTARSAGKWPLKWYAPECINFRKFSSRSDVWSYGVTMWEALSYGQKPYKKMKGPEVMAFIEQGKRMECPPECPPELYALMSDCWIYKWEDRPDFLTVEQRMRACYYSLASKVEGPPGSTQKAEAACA
Sequence of CDK7 (P50613 whole entry): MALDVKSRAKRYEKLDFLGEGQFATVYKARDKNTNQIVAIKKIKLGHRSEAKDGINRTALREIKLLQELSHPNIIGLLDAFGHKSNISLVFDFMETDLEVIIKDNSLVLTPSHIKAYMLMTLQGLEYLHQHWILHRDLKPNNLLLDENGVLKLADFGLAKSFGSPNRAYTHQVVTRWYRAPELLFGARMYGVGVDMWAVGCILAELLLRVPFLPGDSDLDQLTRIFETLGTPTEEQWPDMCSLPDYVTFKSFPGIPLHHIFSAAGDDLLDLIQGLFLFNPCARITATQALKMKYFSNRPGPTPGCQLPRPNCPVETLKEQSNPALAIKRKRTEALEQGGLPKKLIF
Sequence of EGFR(L858R) (P00533 whole entry L858R): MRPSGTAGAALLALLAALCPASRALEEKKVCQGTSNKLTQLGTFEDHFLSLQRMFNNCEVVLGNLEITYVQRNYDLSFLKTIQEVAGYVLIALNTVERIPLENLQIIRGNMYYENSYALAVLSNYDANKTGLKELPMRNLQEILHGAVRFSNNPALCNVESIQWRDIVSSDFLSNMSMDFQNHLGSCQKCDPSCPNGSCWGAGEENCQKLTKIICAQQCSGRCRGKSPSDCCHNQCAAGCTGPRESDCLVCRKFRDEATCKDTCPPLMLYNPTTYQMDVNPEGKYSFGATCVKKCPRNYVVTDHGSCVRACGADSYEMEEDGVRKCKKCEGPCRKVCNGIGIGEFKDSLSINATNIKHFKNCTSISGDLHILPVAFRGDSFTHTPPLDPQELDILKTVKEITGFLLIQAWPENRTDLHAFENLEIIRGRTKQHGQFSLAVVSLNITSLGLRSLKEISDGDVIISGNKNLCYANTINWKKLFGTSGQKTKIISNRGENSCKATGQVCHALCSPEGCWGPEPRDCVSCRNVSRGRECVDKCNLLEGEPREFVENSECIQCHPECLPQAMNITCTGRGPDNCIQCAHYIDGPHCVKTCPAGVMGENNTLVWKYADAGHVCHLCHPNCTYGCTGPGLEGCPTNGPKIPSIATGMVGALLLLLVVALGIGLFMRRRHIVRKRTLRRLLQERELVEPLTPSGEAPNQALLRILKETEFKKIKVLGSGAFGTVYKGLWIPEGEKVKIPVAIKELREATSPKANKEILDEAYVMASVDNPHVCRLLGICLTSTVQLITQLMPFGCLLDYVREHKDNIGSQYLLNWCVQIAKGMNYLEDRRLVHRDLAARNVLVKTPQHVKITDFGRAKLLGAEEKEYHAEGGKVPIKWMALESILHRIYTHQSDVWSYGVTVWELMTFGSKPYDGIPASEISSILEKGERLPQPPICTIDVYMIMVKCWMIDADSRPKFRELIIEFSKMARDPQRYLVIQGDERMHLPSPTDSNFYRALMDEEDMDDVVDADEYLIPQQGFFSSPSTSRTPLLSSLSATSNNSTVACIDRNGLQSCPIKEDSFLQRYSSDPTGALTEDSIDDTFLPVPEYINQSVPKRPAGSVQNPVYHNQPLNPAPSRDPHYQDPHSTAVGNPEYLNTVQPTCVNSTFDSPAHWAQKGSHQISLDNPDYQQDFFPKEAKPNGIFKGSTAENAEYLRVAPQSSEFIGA
T6 sequence (Q02750 whole entry): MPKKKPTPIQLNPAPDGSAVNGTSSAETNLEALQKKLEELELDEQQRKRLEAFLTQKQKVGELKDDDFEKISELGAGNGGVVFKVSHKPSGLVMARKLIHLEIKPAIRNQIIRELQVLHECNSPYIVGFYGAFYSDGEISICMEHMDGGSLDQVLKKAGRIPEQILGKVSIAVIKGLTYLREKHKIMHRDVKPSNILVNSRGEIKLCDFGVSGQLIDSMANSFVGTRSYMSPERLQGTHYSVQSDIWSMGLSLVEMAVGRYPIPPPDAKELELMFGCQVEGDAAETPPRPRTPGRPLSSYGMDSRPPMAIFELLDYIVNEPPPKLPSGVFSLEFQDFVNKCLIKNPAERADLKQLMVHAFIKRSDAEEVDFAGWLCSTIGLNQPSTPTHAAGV
Sequence of ERBB2 (P04626 whole entry): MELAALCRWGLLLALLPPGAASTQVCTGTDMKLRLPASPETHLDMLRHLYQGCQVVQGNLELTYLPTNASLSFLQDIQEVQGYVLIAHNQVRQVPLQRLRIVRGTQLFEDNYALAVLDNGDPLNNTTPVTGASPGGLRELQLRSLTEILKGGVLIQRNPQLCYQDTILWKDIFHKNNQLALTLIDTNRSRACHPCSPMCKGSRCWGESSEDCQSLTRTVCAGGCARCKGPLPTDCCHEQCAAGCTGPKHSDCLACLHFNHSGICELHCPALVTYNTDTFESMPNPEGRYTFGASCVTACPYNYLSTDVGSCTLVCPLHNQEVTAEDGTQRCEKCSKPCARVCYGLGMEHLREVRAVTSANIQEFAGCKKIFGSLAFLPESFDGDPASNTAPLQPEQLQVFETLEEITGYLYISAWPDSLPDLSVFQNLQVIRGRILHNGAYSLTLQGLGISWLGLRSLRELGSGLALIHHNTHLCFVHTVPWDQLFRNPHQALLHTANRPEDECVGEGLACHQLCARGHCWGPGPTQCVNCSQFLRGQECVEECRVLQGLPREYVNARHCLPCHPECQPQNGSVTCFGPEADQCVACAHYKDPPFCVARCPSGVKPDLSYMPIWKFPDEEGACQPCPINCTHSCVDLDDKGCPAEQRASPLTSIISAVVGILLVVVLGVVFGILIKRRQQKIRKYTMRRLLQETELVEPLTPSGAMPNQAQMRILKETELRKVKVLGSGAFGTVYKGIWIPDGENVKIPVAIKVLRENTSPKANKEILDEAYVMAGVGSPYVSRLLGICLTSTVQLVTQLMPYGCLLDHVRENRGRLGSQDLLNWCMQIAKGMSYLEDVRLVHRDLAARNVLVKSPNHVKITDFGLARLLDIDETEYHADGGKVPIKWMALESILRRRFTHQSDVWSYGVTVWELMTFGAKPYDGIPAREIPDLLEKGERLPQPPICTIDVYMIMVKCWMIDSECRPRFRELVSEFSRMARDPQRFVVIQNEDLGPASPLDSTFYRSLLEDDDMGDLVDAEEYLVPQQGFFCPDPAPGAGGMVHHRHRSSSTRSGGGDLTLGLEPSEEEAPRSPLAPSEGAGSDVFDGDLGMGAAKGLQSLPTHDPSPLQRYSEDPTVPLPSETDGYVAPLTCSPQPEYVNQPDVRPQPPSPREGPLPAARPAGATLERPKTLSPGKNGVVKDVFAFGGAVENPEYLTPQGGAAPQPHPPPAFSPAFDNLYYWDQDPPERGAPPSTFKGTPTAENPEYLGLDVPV

percent of control binding at 10 µM [1, 24]: 85%
percent of control binding at 10 µM [2, 24]: 100%
percent of control binding at 10 µM [3, 24]: 0.15%
percent of control binding at 10 µM [4, 24]: 100%
percent of control binding at 10 µM [5, 24]: 46%
percent of control binding at 10 µM [6, 24]: 26%
percent of control binding at 10 µM [7, 24]: 23%
percent of control binding at 10 µM [8, 24]: 10%
percent of control binding at 10 µM [9, 24]: 100%
percent of control binding at 10 µM [10, 24]: 46%
percent of control binding at 10 µM [11, 24]: 33%
percent of control binding at 10 µM [12, 24]: 0.9%
percent of control binding at 10 µM [13, 24]: 19%
percent of control binding at 10 µM [14, 24]: 9.4%
percent of control binding at 10 µM [15, 24]: 2.1%
percent of control binding at 10 µM [16, 24]: 100%
percent of control binding at 10 µM [17, 24]: 1.6%
percent of control binding at 10 µM [18, 24]: 3%
percent of control binding at 10 µM [19, 24]: 49%
percent of control binding at 10 µM [20, 24]: 24%
percent of control binding at 10 µM [21, 24]: 100%
percent of control binding at 10 µM [22, 24]: 94%
percent of control binding at 10 µM [23, 24]: 14%
Compound: Nc1nc(Nc2ccc3c(c2)CC[C@@H](N2CCCC2)CC3)nn1-c1cc2c(nn1)-c1ccccc1CCC2 [R428]

remaining binding at 10 µM [1, 25]: 93%
remaining binding at 10 µM [2, 25]: 100%
remaining binding at 10 µM [3, 25]: 89%
remaining binding at 10 µM [4, 25]: 83%
remaining binding at 10 µM [5, 25]: 100%
remaining binding at 10 µM [6, 25]: 96%
remaining binding at 10 µM [7, 25]: 85%
remaining binding at 10 µM [8, 25]: 94%
remaining binding at 10 µM [9, 25]: 100%
remaining binding at 10 µM [10, 25]: 94%
remaining binding at 10 µM [11, 25]: 76%
remaining binding at 10 µM [12, 25]: 100%
remaining binding at 10 µM [13, 25]: 78%
remaining binding at 10 µM [14, 25]: 88%
remaining binding at 10 µM [15, 25]: 74%
remaining binding at 10 µM [16, 25]: 100%
remaining binding at 10 µM [17, 25]: 97%
remaining binding at 10 µM [18, 25]: 75%
remaining binding at 10 µM [19, 25]: 87%
remaining binding at 10 µM [20, 25]: 91%
remaining binding at 10 µM [21, 25]: 88%
remaining binding at 10 µM [22, 25]: 100%
remaining binding at 10 µM [23, 25]: 89%
Compound: Cc1cc(CSc2ccccc2C(=O)NCCNc2ccc(C(F)(F)F)cc2[N+](=O)[O-])on1 [RU-301]
